Measured values taken from patent US11819019B2, “Protein-free semen cryopreservation” (University of Saskatchewan, priority 2017, dated 2023).
Where no end group is shown, it is not given here. [ ]: non-standard residue; d: D form. Dmt = Cc1cc(O)cc(C)c1C[C@H](N)C(=O)O

Columns and labels:
[1] = system: equine sperm; settings: Vidament et al, 2005; cited from earlier work
[2] = system: bull sperm; test: Motility of fresh bull sperm after exposure to cell penetrating peptides, CASA (Example 8); type: cell-based; settings: CPPs added at 37° C., FIG. 13
Procedure: Semen was collected from four bulls using electro-ejaculator. Semen was analyzed with Computer Assisted Semen Analysis (CASA) and washed (2×) with tris citric acid buffer (TB). The washed semen was diluted to 2.2 million/ml with TB. Semen (46 μl) was mixed with 4 μl of 100 μM solution of SS31 or mTP4. TB buffer alone was added in the control sample. […] After incubation, sperm motility was analyzed by CASA and then cells were treated with 2.5 μl propidium iodide (50 μg/ml) or 3 μl SYBR-14. Sperm were fixed with 10 μl of 10%-formaldehyde and another 500 μl PBS was added before flowcytometry analysis.

[3] = system: bull sperm; test: Frozen-thaw longevity of bull sperm with cell penetrating peptides, CASA at 0, 2 and 4 hrs (Example 8); type: cell-based
Procedure: Semen was collected from four beef bulls using electro-ejaculator. Immediately after collection, 0.5 μM SS31 or mTP4 was added per ml semen. Concentration of up to 20 μM SS31 or mTP4 were also used. Semen transported to Cryobiology Lab where semen was analyzed with CASA. Semen was further diluted with egg yolk extender to 50 million per ml, packaged in straws and frozen following a freezing curve developed in our lab. Frozen semen with and without SS31 was thawed and CASA analysis was conducted at 0 (<15 min), 2 and 4 hrs. Structural characters, i.e. plasma membrane and acrosome, were also analyzed using FITC-PNA and PI assay with flow cytometer, as described in Examples 4 and 5.

Row | Compound | concentration in a preservation medium reported to be toxic to equine sperm [1] | sperm motility and progressive motility as compared control [2] | Percent decline motility over time ([3]; 4 hr post-thaw, vs control and mTP4 groups, FIG. 15) | post-thaw total sperm motility and progressive motility vs control ([3]; semen frozen in egg yolk extender, 0, 2 and 4 hrs post-thaw, FIG. 14)
1 | OCC(O)CO [Glycerol, glycerol] | greater than 3.5% | – | – | –
2 | D-Arg-DMT-Lys-Phe [SS31] | – | improved | lesser | better
3 | DMT-D-MWWRRSRTNSLRYT ([Dmt][dM]WWRRSRTNSLRYT) [mTP4] | – | improved | – | –
